Assay results reported in patent US9695155B2, “Herbicidal substituted pyrimidinyloxy benzene compounds” (E. I. DU PONT DE NEMOURS AND COMPANY, priority 2013, dated 2017).

What was measured:
[1] = system: wheat; experiment: Test A postemergence; type: in vivo, Triticum aestivum; details: Triticum aestivum, post-emergence, 240 h, 0 to 100 scale where 0 is no effect and 100 is complete control
How it was run: (§1)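 Greenhouse pot test, loam/sand soil. Formulation: non-phytotoxic solvent mix plus surfactant. Pre: directed spray onto soil after sowing. Post: plants at 1–2 leaf, 2–10 cm. Rated visually vs untreated controls at ~10 d, 0 (no effect) to 100 (complete control).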

[2] = system: giant foxtail; experiment: Test C postemergence; type: in vivo, Setaria faberii; details: Setaria faberi, post-emergence
How it was run: (§2)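 Injury was assessed visually against controls 13 to 15 days after application, with 0 meaning no effect and 100 full control; missing entries are shown as a dash. Preemergence sprays hit seeded loam–sand soil, postemergence sprays hit 1- to 4-leaf plants.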

[3] = system: blackgrass; experiment: Test C postemergence; type: in vivo, Alopecurus myosuroides; details: Alopecurus myosuroides, post-emergence
How it was run: as §2

[4] = system: barnyardgrass; experiment: Test A preemergence; type: in vivo, Echinochloa crus-galli; details: Echinochloa crus-galli, pre-emergence, 240 h, 0 to 100 scale where 0 is no effect and 100 is complete control
How it was run: as §1

[5] = system: kochia; experiment: Test A preemergence; type: in vivo, Kochia scoparia; details: 0 to 100 scale where 0 is no effect and 100 is complete control
How it was run: as §1

[6] = system: ragweed; experiment: Test C postemergence; type: in vivo, Ambrosia elatior
How it was run: as §2

[7] = system: Italian ryegrass; experiment: Test C preemergence; type: in vivo, Lolium multiflorum; details: Lolium multiflorum, pre-emergence, preemergence, read-out: Ryegrass, Italian plant response rating
How it was run: as §2

[8] = system: velvetleaf; experiment: Test C postemergence; type: in vivo, Abutilon theophrasti
How it was run: as §2

[9] = system: galium; experiment: Test C preemergence; type: in vivo, Galium aparine; details: Galium, pre-emergence
How it was run: as §2

[10] = system: galium; experiment: Test C postemergence; type: in vivo, Galium aparine; details: Galium, post-emergence
How it was run: as §2

[11] = system: morningglory; experiment: Test C preemergence; type: in vivo, Ipomoea coccinea; details: Ipomoea, pre-emergence, preemergence, read-out: Morningglory plant response rating
How it was run: as §2

[12] = system: soybean; experiment: Test C postemergence; type: in vivo, Glycine max
How it was run: as §2

[13] = system: johnsongrass; experiment: Test C preemergence; type: in vivo, Sorghum halepense; details: Sorghum halepense, pre-emergence, preemergence, read-out: Johnsongrass plant response rating
How it was run: as §2

[14] = system: Italian ryegrass; experiment: Test A preemergence; type: in vivo, Lolium multiflorum; details: 0 to 100 scale where 0 is no effect and 100 is complete control
How it was run: as §1

[15] = system: lambsquarters; experiment: Test C postemergence; type: in vivo, Chenopodium album
How it was run: as §2

[16] = system: barnyardgrass; experiment: Test A postemergence; type: in vivo, Echinochloa crus-galli; details: Echinochloa crus-galli, post-emergence, 240 h, 0 to 100 scale where 0 is no effect and 100 is complete control
How it was run: as §1

[17] = system: Italian ryegrass; experiment: Test A postemergence; type: in vivo, Lolium multiflorum; details: 0 to 100 scale where 0 is no effect and 100 is complete control
How it was run: as §1

[18] = 31 g ai/ha, postemergence, visual rating, scale 0 to 100 (0 no effect, 100 complete control), 13 to 15 days
[19] = 16 g ai/ha, scale 0 to 100 (0 no effect, 100 complete control)
[20] = 62 g ai/ha, scale 0 (no effect) to 100 (complete control)
[21] = 125 g ai/ha, scale 0 (no effect) to 100 (complete control)

Which results are given for `FC(F)c1cn(-c2ccccc2Oc2ncc(Cl)cn2)nn1` [Compound 147, 5-chloro-2-[2-[4-(difluoromethyl)-1H-1,2,3-triazol-1-yl]phenoxy]pyrimidine]?
plant injury at 125 g/ha ([1]; 125 g ai/ha, read-out: Wheat plant response rating): 50%; plant injury at 500 g/ha ([1]; 500 g ai/ha, read-out: Plant response rating, Wheat): 80%; pest or weed control at 16 g/ha ([2]; 16 g ai/ha, postemergence, 0 is no effect, 100 is complete control, read-out: Plant response rating (0 to 100), Foxtail, Giant): 0%; pest or weed control at 31 g/ha ([2]; 31 g ai/ha, postemergence, visual rating, scale 0 to 100 (0 no effect, 100 complete control), 13 to 15 days, read-out: Foxtail, Giant plant response rating): 0%; pest or weed control at 125 g/ha ([2]; 125 g ai/ha, postemergence, visual rating, scale 0 to 100 (0 no effect, 100 complete control), read-out: Plant response rating, Foxtail, Giant): 50%; pest or weed control at 62 g/ha ([2]; Postemergence, 62 g ai/ha, scale 0 to 100 (0 no effect, 100 complete control), read-out: Plant response rating, Foxtail, Giant): 20%; pest or weed control at 16 g/ha ([3]; 16 g ai/ha, postemergence, 0 is no effect, 100 is complete control, read-out: Plant response rating (0 to 100), Blackgrass): 0%; pest or weed control at 31 g/ha ([3]; 31 g ai/ha, postemergence, visual rating, scale 0 to 100 (0 no effect, 100 complete control), 13 to 15 days, read-out: Blackgrass plant response rating): 0%; pest or weed control at 125 g/ha ([3]; 125 g ai/ha, postemergence, visual rating, scale 0 to 100 (0 no effect, 100 complete control), read-out: Plant response rating, Blackgrass): 10%; pest or weed control at 62 g/ha ([3]; Postemergence, 62 g ai/ha, scale 0 to 100 (0 no effect, 100 complete control), read-out: Plant response rating, Blackgrass): 0%; pest or weed control at 125 g/ha ([4]; 125 g ai/ha, read-out: Plant response rating, Barnyardgrass): 100%; pest or weed control at 500 g/ha ([4]; 500 g ai/ha, read-out: Barnyardgrass plant response rating): 100%; Plant response rating, Kochia ([5]; 125 g ai/ha): 100; Kochia plant response rating ([5]; 500 g ai/ha): 100; Ragweed plant response rating [6, 18]: 65; pest or weed control at 16 g/ha ([6]; Ambrosia artemisiifolia, post-emergence, 16 g ai/ha, postemergence, 0 is no effect, 100 is complete control, read-out: Plant response rating (0 to 100), Ragweed): 40%; pest or weed control at 125 g/ha ([6]; Ambrosia artemisiifolia, post-emergence, 125 g ai/ha, postemergence, visual rating, scale 0 to 100 (0 no effect, 100 complete control), read-out: Plant response rating, Ragweed): 85%; pest or weed control at 62 g/ha ([6]; Ambrosia artemisiifolia, post-emergence, Postemergence, 62 g ai/ha, scale 0 to 100 (0 no effect, 100 complete control), read-out: Plant response rating, Ragweed): 75%; pest or weed control at 16 g/ha [7, 19]: 0%; pest or weed control at 62 g/ha [7, 20]: 50%; pest or weed control at 125 g/ha [7, 21]: 70%; Velvetleaf plant response rating [8, 18]: 70; pest or weed control at 16 g/ha ([8]; Abutilon theophrasti, post-emergence, 16 g ai/ha, postemergence, 0 is no effect, 100 is complete control, read-out: Plant response rating (0 to 100), Velvetleaf): 55%; pest or weed control at 125 g/ha ([8]; Abutilon theophrasti, post-emergence, 125 g ai/ha, postemergence, visual rating, scale 0 to 100 (0 no effect, 100 complete control), read-out: Plant response rating, Velvetleaf): 75%; pest or weed control at 62 g/ha ([8]; Abutilon theophrasti, post-emergence, Postemergence, 62 g ai/ha, scale 0 to 100 (0 no effect, 100 complete control), read-out: Plant response rating, Velvetleaf): 85%; pest or weed control at 16 g/ha ([9]; 16 g ai/ha, preemergence, scale 0 to 100 (0 no effect, 100 complete control), read-out: Galium plant response rating): 90%; pest or weed control at 62 g/ha ([9]; 62 g ai/ha, preemergence, scale 0 (no effect) to 100 (complete control), read-out: Galium plant response rating): 98%; pest or weed control at 125 g/ha ([9]; 125 g ai/ha, preemergence, scale 0 (no effect) to 100 (complete control), read-out: Galium plant response rating): 98%; pest or weed control at 31 g/ha ([9]; Preemergence, 31 g ai/ha, scale 0 to 100, 0 no effect, 100 complete control, read-out: Plant response rating, Galium): 98%; pest or weed control at 16 g/ha ([10]; 16 g ai/ha, postemergence, 0 is no effect, 100 is complete control, read-out: Plant response rating (0 to 100), Galium): 85%; pest or weed control at 31 g/ha ([10]; 31 g ai/ha, postemergence, visual rating, scale 0 to 100 (0 no effect, 100 complete control), 13 to 15 days, read-out: Galium plant response rating): 90%; pest or weed control at 125 g/ha ([10]; 125 g ai/ha, postemergence, visual rating, scale 0 to 100 (0 no effect, 100 complete control), read-out: Plant response rating, Galium): 90%; pest or weed control at 62 g/ha ([10]; Postemergence, 62 g ai/ha, scale 0 to 100 (0 no effect, 100 complete control), read-out: Plant response rating, Galium): 90%; pest or weed control at 16 g/ha [11, 19]: 40%; pest or weed control at 62 g/ha [11, 20]: 95%; pest or weed control at 125 g/ha [11, 21]: 100%; Soybean plant response rating [12, 18]: 65; Soybean plant response rating (crop injury, 0-100 scale) at 16 g/ha ([12]; Glycine max, post-emergence, 16 g ai/ha, postemergence, 0 is no effect, 100 is complete control): 65%; Soybean plant response rating (crop injury, 0-100 scale) at 125 g/ha ([12]; Glycine max, post-emergence, 125 g ai/ha, postemergence, visual rating, scale 0 to 100 (0 no effect, 100 complete control), read-out: Plant response rating, Soybean): 90%; Soybean plant response rating (crop injury, 0-100 scale) at 62 g/ha ([12]; Glycine max, post-emergence, Postemergence, 62 g ai/ha, scale 0 to 100 (0 no effect, 100 complete control)): 85%; pest or weed control at 16 g/ha [13, 19]: 10%; pest or weed control at 62 g/ha [13, 20]: 80%; pest or weed control at 125 g/ha [13, 21]: 90%; Plant response rating, Ryegrass, Italian ([14]; 125 g ai/ha): 10; Ryegrass, Italian plant response rating ([14]; 500 g ai/ha): 100; Lambsquarters plant response rating [15, 18]: 75; pest or weed control at 16 g/ha ([15]; Chenopodium album, post-emergence, 16 g ai/ha, postemergence, 0 is no effect, 100 is complete control, read-out: Plant response rating (0 to 100), Lambsquarters): 60%; pest or weed control at 125 g/ha ([15]; Chenopodium album, post-emergence, 125 g ai/ha, postemergence, visual rating, scale 0 to 100 (0 no effect, 100 complete control), read-out: Plant response rating, Lambsquarters): 98%; pest or weed control at 62 g/ha ([15]; Chenopodium album, post-emergence, Postemergence, 62 g ai/ha, scale 0 to 100 (0 no effect, 100 complete control), read-out: Plant response rating, Lambsquarters): 90%; pest or weed control at 125 g/ha ([16]; 125 g ai/ha, read-out: Barnyardgrass plant response rating): 90%; pest or weed control at 500 g/ha ([16]; 500 g ai/ha, read-out: Plant response rating, Barnyardgrass): 90%; Ryegrass, Italian plant response rating ([17]; 125 g ai/ha): 70; Plant response rating, Ryegrass, Italian ([17]; 500 g ai/ha): 90
